Cn1cc(-c2cc3cccnc3[nH]2)c2cc(N)ccc21 [Example 18, 1-Methyl-3-(1H-pyrrolo[2,3-b]pyridin-2-yl)-1H-indol-5-ylamine]
melting point: 247 to 248 °C

COc1ccc2[nH]cc(-c3cc4nccnc4[nH]3)c2c1 [Example 11, 6-(5-Methoxy-1H-indol-3-yl)-5H-pyrrolo[2,3-b]pyrazine]
melting point: 268 to 271 °C

COc1ccc2c(c1)c(-c1cc3nccnc3[nH]1)cn2CC(=O)N1CCOCC1 [Example 12, 2-[5-Methoxy-3-(5H-pyrrolo[2,3-b]pyrazin-6-yl)-indol-1-yl]-1-morpholin-4-yl-ethanone]
melting point: 263 to 267 °C

CCOC(=O)COc1cc(-c2cc3nccnc3[nH]2)ccc1OC [Example 27, [2-Methoxy-5-(5H-pyrrolo[2,3-b]pyrazin-6-yl)-phenoxy]acetic acid ethyl ester]
melting point: 183 to 184 °C

c1cncc(OCCCn2cc(-c3cc4nccnc4[nH]3)c3ccccc32)c1 [Example 6, 6-{1-[3-(Pyridin-3-yloxy)-propyl]-1H-indol-3-yl}-5H-pyrrolo[2,3-b]pyrazine]
melting point: 208 to 209 °C

CC(C)(C)c1ccc(-c2[nH]c3nccnc3c2CCCO)cc1 [Example 26, 3-[6-(4-tert-Butyl-phenyl)-5H-pyrrolo[2,3-b]pyrazin-7-yl]-propan-1-ol]
melting point: 187 to 189 °C

From patent US7227020B2, “Azaindoles” (Aventis Pharma Limited, priority 1999, dated 2007)
